According to publication PMC2527972 (Science (New York, N.Y.), 2008):

Biological target: T1, MetNI (Escherichia coli, UniProt P30750)
T1 sequence (P30750 1-343): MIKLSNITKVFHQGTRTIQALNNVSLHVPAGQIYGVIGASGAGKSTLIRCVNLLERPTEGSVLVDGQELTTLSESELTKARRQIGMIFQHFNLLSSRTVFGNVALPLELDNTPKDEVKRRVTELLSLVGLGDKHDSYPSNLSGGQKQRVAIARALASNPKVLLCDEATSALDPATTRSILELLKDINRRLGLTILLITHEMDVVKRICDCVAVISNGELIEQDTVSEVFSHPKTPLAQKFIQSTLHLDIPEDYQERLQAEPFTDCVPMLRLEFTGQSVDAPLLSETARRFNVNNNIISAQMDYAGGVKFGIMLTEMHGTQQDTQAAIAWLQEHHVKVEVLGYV
T1 sequence (P31547 1-217 partner): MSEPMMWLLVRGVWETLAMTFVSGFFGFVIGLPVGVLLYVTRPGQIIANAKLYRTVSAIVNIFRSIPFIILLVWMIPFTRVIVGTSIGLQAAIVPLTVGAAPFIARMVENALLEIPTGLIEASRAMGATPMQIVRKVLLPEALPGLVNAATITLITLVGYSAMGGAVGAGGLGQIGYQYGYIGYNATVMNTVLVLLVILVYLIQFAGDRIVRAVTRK
Test: ATPase activity, phosphate production assay
Assay type: biochemical

- IC50: ~30 µM
Compound: CSCC[C@H](N)C(=O)O [L-methionine]
